In the NIST ThermoML archive (doi:10.1016/j.tca.2013.06.031):

Key:
[1] = 101 kPa, Liquid, Capillary tube (Ostwald / Ubbelohde) method
[2] = mn = molality of the nth substance listed, in mol/kg; conditions: 101 kPa, Liquid, m2 = 0; for viscosity: Capillary tube (Ostwald / Ubbelohde) method; for mass density: Vibrating tube method
[3] = wn = mass fraction of the nth substance listed; conditions: 101 kPa, Liquid, w1 = 0.009; for viscosity: Capillary tube (Ostwald / Ubbelohde) method; for mass density: Vibrating tube method

O [water]
[1]
Conditions | viscosity [mPa·s]
278.15 K | 1.521
283.15 K | 1.307
288.15 K | 1.135
293.15 K | 1.002
298.15 K | 0.8903
303.15 K | 0.7977
308.15 K | 0.719
313.15 K | 0.6532

O [water] + CO/N=C(\C(=O)N[C@@H]1C(=O)N2C(C(=O)[O-])=C(CSc3nc(C)c(CC(=O)[O-])s3)CS[C@H]12)c1csc(N)n1.[Na+].[Na+]
[2]
Conditions | mass density [kg/m3] | viscosity [mPa·s]
278.15 K | 999.96 | 1.521
283.15 K | 999.7 | 1.307
288.15 K | – | 1.135
293.15 K | – | 1.002
298.15 K | – | 0.8903
303.15 K | – | 0.7977
308.15 K | – | 0.719
313.15 K | – | 0.6532

[Cl-].[Na+] [sodium chloride] + O
[3]
Conditions | mass density [kg/m3] | viscosity [mPa·s]
278.15 K | 1006.09 | 1.53
283.15 K | 1005.64 | 1.321
288.15 K | 1005.07 | 1.154
293.15 K | 1004.14 | 1.015
298.15 K | 1002.96 | 0.9068
303.15 K | 1001.47 | 0.8105
308.15 K | 999.75 | 0.7363
313.15 K | 997.82 | 0.6641
